# Experimental data taken from ChEMBL document CHEMBL3044759, “Synthesis and Insecticidal Activity of Lignan Analogs. (1)” (1991).
# Active and inactive are the calls of the source. No cut-off for these calls is given here.
# Test system: Musca domestica
# Assay: Insecticidal activity against Musca domestica (housefly) assessed as paralysis at 28 degC measured after 24 hr at 10 ug topically
# Assay type: functional, organism-based
row,Structure (SMILES),Activity
1,COc1ccc(O[Si](C)(C)C(C)(C)C)cc1[C@H]1OC[C@]2(O[Si](C)(C)C(C)(C)C)C(Oc3c(OC)cccc3OC)OC[C@H]12 (mixture of isomers),inactive
2,COCCOCCOc1ccc(OC)c([C@H]2OC[C@]3(O)[C@@H](Oc4c(OC)cccc4OC)OC[C@H]23)c1 (racemic),Active
3,COCCOc1ccc(OC)c([C@H]2OC[C@]3(O)[C@@H](Oc4c(OC)cccc4OC)OC[C@H]23)c1 (racemic),Active
4,COCCOc1ccc(OC)c([C@H]2OC[C@]3(O)[C@H](Oc4c(OC)cccc4OC)OC[C@H]23)c1 (racemic),inactive
5,COc1ccc(O)cc1[C@H]1OC[C@]2(O)[C@H](Oc3c(OC)cccc3OC)OC[C@H]12 (racemic),inactive
6,COc1ccc(O)cc1[C@H]1OC[C@]2(O[Si](C)(C)C(C)(C)C)[C@@H](Oc3c(OC)cccc3OC)OC[C@H]12 (racemic),inactive
7,COc1ccc(OCc2ccc3c(c2)OCO3)cc1[C@H]1OC[C@]2(O)[C@@H](Oc3c(OC)cccc3OC)OC[C@H]12 (racemic),inactive

# Test system: Musca domestica
# Assay: Insecticidal activity against Musca domestica (housefly) assessed as paralysis at 28 degC measured per fly after 24 hr
# Assay type: functional
row,Structure (SMILES),LD50
1,CCCCOc1ccc(OC)c([C@H]2OC[C@]3(O)[C@@H](Oc4c(OC)cccc4OC)OC[C@H]23)c1 (racemic),8 µg
